Data as given in US6896893B2, “Needle-less parenteral introduction device” (Societe de Conseils de Recherches et d'Applications …, priority 1994, dated 2005).

Columns and labels:
[1] = type: physicochemical
Description: (§1) A test was conducted with Insulin Human Recombinant (IHR) and Insulin Bovine Pancreas (IBP). […] IHR and IBP represent about 26 Insulin Units (IU) per mg.
(§2) A synthetic anti-PAF, 4,7,8,10-tetrahydro-1-methyl-6-(2-chlorphenyl)-9-(4-methoxyphenylthiocarbamoyl)-pyrido-[4′,3′-4,5] thieno [3,2-f]-1,2,4-triazolo [4,5-a] 1,4-diazepine, and a natural anti-PAF, ginkgolide B, were compared to conventional administration. The synthetic anti-PAF cannot conventionally be used parenterally because of its insolubility.

[2] = tested on: PAF; test: anti-PAF pharmacological effect, solid form vs conventional administration; type: in vivo
Excerpt: as §2

[3] = pharmacokinetic profiles of injected tablets vs conventional solutions; type: in vivo; details: tablets with gelatin and PVP 5-10%
Description: A formulation of a somatostatin analogue, D-Nal-cyclo [Cys-Tyr-D-Trp-Lys-Val-Cys]-Thr-NH2 was made into injectable tablets by associating the dry material with gelatin and polyvinylpyrrolidone (PVP, 5-10%). The tablets were injected and compared to conventional solutions in terms of pharmacokinetic profiles.

[4] = insulin unit content per mg
Description: as §1

Molecule | water solubility [1] | Insulin Units (IU) per mg [4] | further results
CC1C(=O)OC2C(O)C34C5CC(C(C)(C)C)C36C(OC(=O)C6O)OC4(C(=O)O5)C12O (centres unmarked) [ginkgolide B] | slightly soluble |  | effect after initial injection, solid vs solution ([2]; same dose, solution pH 8.75): the effect was the same after initial injection; duration of effect ([2]; solid dry formulation, same dose): 24 h; duration of effect ([2]; solution form (pH 8.75), same dose): 2 h
COc1ccc(NC(=S)N2CCc3c(sc4c3C(c3ccccc3Cl)=NCc3nnc(C)n3-4)C2)cc1 [synthetic anti-PAF, 4,7,8,10-tetrahydro-1-methyl-6-(2-chlorphenyl)-9-(4-methoxyphenylthiocarbamoyl)-pyrido-[4′,3′-4,5] thieno [3,2-f]-1,2,4-triazolo [4,5-a] 1,4-diazepine] | insolubility |  | correlation between pharmacological effect and blood concentration ([2]; solid form): very good correlation
D-Nal-cyclo [Cys-Tyr-D-Trp-Lys-Val-Cys]-Thr-NH2 |  |  | pharmacokinetic profile / pharmacological results, injected tablets vs conventional solutions [3]: substantially the same pharmacological results
Insulin Bovine Pancreas [IBP] | water insoluble | about 26 IU per mg | 
Insulin Human Recombinant [IHR] | water soluble | about 26 IU per mg | 
